Experimental findings from patent publication US10076519B2 (CYTOKINETICS, INC., priority 2010, dated 2018) are described below.

One experiment deals with rabbit skeletal myofibrils (fast skeletal myofibrils). In words: Activation of fast skeletal myofibrils (PUMA assay, PK/LDH-coupled ATPase at pCa25). It is filed as biochemical. Conditions: AC1.4 determined according to the procedure of Example 39; reported as class symbols. In a few lines:
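Detergent-washed rabbit psoas myofibrils (~90% fast fibres, calcium-regulated) assayed at calcium giving 25% of maximal ATPase rate (pCa25). ADP turnover coupled via pyruvate kinase/lactate dehydrogenase to NADH oxidation, read at 340 nm. Buffer 12 mM PIPES, 2 mM MgCl2, 1 mM DTT, pH 6.8; AC1.4 values derived.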
On to `CC(C)(CNc1ccc(C(=O)NCCC(N)=O)nn1)c1ccc(F)cc1` [N-(2-carbamoylethyl)(6-{[2-(4-fluorophenyl)-2-methylpropyl]amino}pyridazin-3-yl)carboxamide], for which the “Mean AC1.4” value was “D (D=>20 uM)”.

Consider `COCCC(CNc1ccc(-c2cccc(C(N)=O)c2)nn1)c1ccccc1F` (centres unmarked) [3-(6-{[2-(2-fluorophenyl)-4-methoxybutyl]amino}pyridazin-3-yl)benzamide], for which the “Mean AC1.4” value is “D (D=>20 uM)”.

Take `CC(C)(CNc1ccc(-c2ccc3[nH]nc(I)c3c2)nn1)c1ccc(F)cc1` [[2-(4-fluorophenyl)-2-methylpropyl][6-(3-iodo(1H-indazol-5-yl))pyridazin-3-yl]amine]: the “Mean AC1.4” value is on record as “B (B=1-10 uM)”. Same read-out and setting: for `CCc1n[nH]c2ccc(-c3ccc(NCC(C)(C)c4ccc(F)cc4)nn3)cc12` [[6-(3-ethyl(1H-indazol-5-yl))pyridazin-3-yl][2-(4-fluorophenyl)-2-methylpropyl]amine] the value was “B (B=1-10 uM)”; for `CC(C)(CNc1ccc(C(=O)NC(CCC(N)=O)C(N)=O)nn1)c1ccc(F)cc1` (centres unmarked) [N-(1,3-dicarbamoylpropyl)(6-{[2-(4-fluorophenyl)-2-methylpropyl]amino}pyridazin-3-yl)carboxamide], “D (D=>20 uM)”; for `CC(C)(CNc1ccc(-c2cncc(C(N)=O)c2)nn1)c1ccc(F)cc1` [5-(6-{[2-(4-fluorophenyl)-2-methylpropyl]amino}pyridazin-3-yl)pyridine-3-carboxamide], “B (B=1-10 uM)”. Same read-out and setting: with `CC(C)(CNc1ccc(C2=CCN(S(C)(=O)=O)CC2)nn1)c1ccc(F)cc1` [4-(6-{[2-(4-fluorophenyl)-2-methylpropyl]amino}pyridazin-3-yl)-1-(methylsulfonyl)-1,2,5,6-tetrahydropyridine] the entry was “B (B=1-10 uM)”. Consider `CC(C)(CNc1ccc(-c2cccc(C(N)=O)c2)nn1)c1ccc(F)cc1F` [3-(6-{[2-(2,4-difluorophenyl)-2-methylpropyl]amino}pyridazin-3-yl)benzamide], for which the “Mean AC1.4” value is “B (B=1-10 uM)”.

Turning to `NC(=O)c1cccc(-c2ccc(NCC3(c4ccc(F)cc4)CCC3)nn2)c1`, the “Mean AC1.4” value is reported as “A (A=<1 uM)”.

As for `NC(=O)c1cccc(-c2ccc(NCC3(c4ccc(F)cc4)COC3)nn2)c1` [3-[6-({[3-(4-fluorophenyl)oxetan-3-yl]methyl}amino)pyridazin-3-yl]benzamide], the “Mean AC1.4” value was “D (D=>20 uM)”. The same measure, in the same setting: with `CC1(C)CC1(CNc1ccc(-c2ccc3[nH]nc(N)c3c2)nn1)c1ccccc1` (centres unmarked) the entry was “A (A=<1 uM)”. Same read-out and setting: with `CC(C)(CNc1ccc(-c2ccc3[nH]nc(N)c3c2)nn1)c1ccccc1CO` the entry was “B (B=1-10 uM)”; with `CC(C)(CNc1ccc(C(=O)N2CCC(C(N)=O)C2)nn1)c1ccc(F)cc1` (centres unmarked) [1-[(6-{[2-(4-fluorophenyl)-2-methylpropyl]amino}pyridazin-3-yl)carbonyl]pyrrolidine-3-carboxamide], “D (D=>20 uM)”.

On to `Cc1ccc(C(N)=O)cc1-c1ccc(NCC2(c3ncccc3F)CCC2)nn1`, for which the “Mean AC1.4” value is reported as “B (B=1-10 uM)”. With `CC(C)(CNc1ccc(C(=O)O)nn1)c1ccc(F)cc1` [6-{[2-(4-fluorophenyl)-2-methylpropyl]amino}pyridazine-3-carboxylic acid], the “Mean AC1.4” value is on record as “D (D=>20 uM)”. `NC(=O)c1cccc(-c2ccc(NCCc3cccnc3)nn2)c1` [3-{6-[(2-(3-pyridyl)ethyl)amino]pyridazin-3-yl}benzamide]: the “Mean AC1.4” value was “D (D=>20 uM)”. Turning to `CC(C)(CNc1ccc(-c2ccc(O)cn2)nn1)c1ccc(F)cc1` [6-(6-{[2-(4-fluorophenyl)-2-methylpropyl]amino}pyridazin-3-yl)pyridin-3-ol], the “Mean AC1.4” value is listed as “A (A=<1 uM)”.

For the molecule `CC(C)(O)c1cccc(C(C)(C)CNc2ccc(-c3ccc4[nH]nc(N)c4c3)nn2)c1`, the “Mean AC1.4” value is given as “C (C=10-20 uM)”. On to `CC(C)(CNc1ccc(-c2cccnc2)nn1)c1ccc(F)cc1` [[2-(4-fluorophenyl)-2-methylpropyl](6-(3-pyridyl)pyridazin-3-yl)amine], for which the “Mean AC1.4” value is “B (B=1-10 uM)”. With `NC(=O)c1ccnc(C2(CNc3ccc(-c4cc(C(N)=O)ccc4F)nn3)CCC2)c1`, the “Mean AC1.4” value is recorded as “D (D=>20 uM)”.

Take `Nc1ccc(-c2ccc(NCC3(c4ncccc4F)CCC3)nn2)cn1` [[6-(6-amino(3-pyridyl))pyridazin-3-yl]{[(3-fluoro(2-pyridyl))cyclobutyl]methyl}amine]: the “Mean AC1.4” value was “A (A=<1 uM)”.

Still in this experiment, the particulars now being: median AC1.4 class, procedure of Example 39.
Consider `CC(=O)c1cnc(-c2ccc(NCC3(c4ncccc4F)CCC3)nn2)s1` [1-{2-[6-({[(3-fluoro-2-pyridyl)cyclobutyl]methyl}ami-no)pyridazin-3-yl]-1,3-thiazol-5-yl}ethan-1-one], for which the “Mean AC1.4” value was “C (C=10-20 uM)”. Turning to `NC(=O)c1cc(-c2ccc(NC3(c4ncccc4F)CCC3)nn2)ccc1O` [5-(6-{[(3-fluoro(2-pyridyl))cyclobutyl]amino}pyr-idazin-3-yl)-2-hydroxybenzamide], the “Mean AC1.4” value was “B (B=1-10 uM)”.

In the case of `N#Cc1cc(-c2ccc(NC3(c4ccc(F)cc4)CCC3)nn2)ccn1`, the “Mean AC1.4” value is “B (B=1-10 uM)”. The same measure, in the same setting: with `NCc1ccccc1-c1ccc(NCC2(c3ncccc3F)CCC2)nn1` [{6-[2-(aminomethyl)phenyl]pyridazin-3-yl}{[(3-fluoro(2-pyridyl))cyclobutyl]methyl}amine] the entry was “D (D=>20 uM)”. In the case of `NC(=O)c1ccnc(C2(Nc3ccc(-c4cc(C(N)=O)ccc4F)nn3)CCC2)c1` [2-({[6-(3-carbamoyl-6-fluorophenyl)pyridazin-3-yl]amino}cyclobutyl)pyridine-4-carboxamide], the “Mean AC1.4” value is recorded as “D (D=>20 uM)”. On to `Fc1cccnc1C1(CNc2ccc(-c3ccc(N4CCOCC4)cc3)nn2)CCC1` [{[(3-fluoro(2-pyridyl))cyclobutyl]methyl}[6-(4-morpholin-4-ylphenyl)pyridazin-3-yl]amine], for which the “Mean AC1.4” value was “D (D=>20 uM)”. On to `COc1ccc(C2(Nc3ccc(-c4cc(C(N)=O)ccc4F)nn3)CCC2)nc1`, for which the “Mean AC1.4” value was “D (D=>20 uM)”. Same read-out and setting: with `CS(=O)(=O)Nc1cccc(-c2ccc(NC3(c4ncccc4OC(F)F)CCC3)nn2)c1` the entry was “C (C=10-20 uM)”; with `NCC(F)(F)CNC(=O)c1cnc(-c2ccc(NCC3(c4ncccc4F)CCC3)nn2)s1` [N-(3-amino-2,2-difluoropropyl){2-[6-({[(3-fluoro(2-pyridyl))cyclobutyl]methyl}ami-no)pyridazin-3-yl](1,3-thiazol-5-yl)}carboxamide], “A (A=<1 uM)”; with `Fc1cccnc1C1(CNc2ccc(-c3ccccc3)nn2)CCC1` [{[(3-fluoro(2-pyridyl))cyclobutyl]methyl}(6-phenylpyridazin-3-yl)amine], “A (A=<1 uM)”. On the same count and under the same terms, for `O=C(NCc1cnc(-c2ccc(NCC3(c4ncccc4F)CCC3)nn2)s1)[C@@H]1CS(=O)(=O)CCN1` [((3R)-1,1-dioxo(1,4-thiazaperhydroin-3-yl))-N-({2-[6-({[(3-fluoro(2-pyridyl))cyclobutyl]methyl}ami-no)pyridazin-3-yl](1,3-thiazol-5-yl)}methyl)carboxamide] the value was “A (A=<1 uM)”.

The same experiment, now with this note: median AC1.4 reported as class; procedure of Example 39.
For `O=C(O)c1ccc(NCC2(c3ncccc3F)CCC2)nn1` [6-({[(3-fluoro-2-pyridyl)cyclobutyl]methyl}ami-no)pyridazine-3-carboxylic acid], the “Mean AC1.4” value is “D (D=>20 uM)”. For `N#Cc1cc(Br)cc(-c2ccc(NCC3(c4ncccc4F)CCC3)nn2)c1O` [5-bromo-3-[6-({[(3-fluoro(2-pyridyl))cyclobutyl]methyl}ami-no)pyridazin-3-yl]-2-hydroxybenzenecarbonitrile], the “Mean AC1.4” value is listed as “A (A=<1 uM)”. Regarding `Nc1ncc(-c2ccc(NC[C@]3(c4ncccc4F)C[C@H](F)C3)nn2)cn1` [[6-(2-aminopyrimidin-5-yl)pyridazin-3-yl]{[3-fluoro-1-(3-fluoro(2-pyridyl))cyclobutyl]methyl}amine], the “Mean AC1.4” value is on record as “B (B=1-10 uM)”. Take `CCOC(=O)Cc1nnc(NC(=O)c2ccc(NCC3(c4ncccc4F)CCC3)nn2)s1` [ethyl 2-(5-{[6-({[(3-fluoro-2-pyridyl)cyclobutyl]methyl}ami-no)pyridazin-3-yl]carbonylamino}-1,3,4-thiadiazol-2-yl)acetate]: the “Mean AC1.4” value is “D (D=>20 uM)”.

On to `O=C1CCC(CNC(=O)c2ccc(NCC3(c4ncccc4F)CCC3)nn2)N1` (centres unmarked) [[6-({[(3-fluoro(2-pyridyl))cyclobutyl]methyl}ami-no)pyridazin-3-yl]-N-[(5-oxopyrrolidin-2-yl)methyl]carboxamide], for which the “Mean AC1.4” value is on record as “D (D=>20 uM)”. On the same count and under the same terms, for `CC(=O)N1CC(NC(=O)c2cccc(-c3ccc(NC[C@]4(c5ncccc5F)C[C@H](F)C4)nn3)c2)C1` [N-(1-acetylazetidin-3-yl){3-[6-({[3-fluoro-1-(3-fluoro(2-pyridyl))cyclobutyl]methyl}ami-no)pyridazin-3-yl]phenyl}carboxamide] the value was “B (B=1-10 uM)”. As to `Fc1cccnc1C1(CNc2ccc(-c3ncc(CN4CCOCC4)s3)nn2)CCC1` [{[(3-fluoro(2-pyridyl))cyclobutyl]methyl}{6-[5-(morpholin-4-ylmethyl)(1,3-thiazol-2-yl)]pyridazin-3-yl}amine], the “Mean AC1.4” value was “B (B=1-10 uM)”.

Turning to `NC(=O)c1cc(O)cc(-c2ccc(NC[C@]3(c4ncccc4F)C[C@H](F)C3)nn2)c1` [3-[6-({[3-fluoro-1-(3-fluoro(2-pyridyl))cyclobutyl]methyl}ami-no)pyridazin-3-yl]-5-hydroxybenzamide], the “Mean AC1.4” value was “A (A=<1 uM)”. With `O=C(NCCF)c1ccc(F)c(-c2ccc(NC[C@]3(c4ncccc4F)C[C@H](F)C3)nn2)c1` [N-(2-fluoroethyl){4-fluoro-3-[6-({[3-fluoro-1-(3-fluoro(2-pyridyl))cyclobutyl]methyl}ami-no)pyridazin-3-yl]phenyl}carboxamide], the “Mean AC1.4” value is “B (B=1-10 uM)”.
